Patent US20240294465A1, “NOVEL ANTI-FIBROTIC DRUGS” (HELMHOLTZ ZENTRUM MUNCHEN - DEUTSCHES FORSCHUNGSZENTRUM FUR …, priority 2021, published 2024)

Key:
phLFs = test: Cytotoxicity assays (MTT, live/dead calcein, caspase 3/7); assay type: cell-based; conditions: confluent phLFs+TGFβ1
Description: Viability/Cytotoxicity Assay Kit for Animal Live and Dead Cells was obtained from Biotium, Cat. No. 3002). CellEvent™ Caspase 3/7 Green Detection Reagent was acquired from Invitrogen, Cat. No. C10423. For MTT-assays, Thiazolyl Blue Tetrazolium was bought from SigmaAldrich (M5655-1G). All these kits and assays were used according to the manufacturer's instructions.

[1] = system: ECM deposition of collagen I, collagen V and fibulin 1 by phLFs+TGFβ1; test: 3D ECM deposition assay (collagen I, collagen V, fibulin 1), dose-response and live imaging; assay type: cell-based, human; conditions: phLFs+TGFβ1, during 48 hours
Procedure: phLFs were cultured in DMEM F-12 medium with 20% fetal bovine serum (FBS) and antibiotic supplement as mentioned above. Cells were seeded with 6000 cells/well in 384-well CellCarrier plates (Perkin Elmer, Cat #6007550). Following overnight incubation, cells were starved in serum-reduced medium (1% FBS with 0.1 mM 2-phosphoascorbate (Sigma, Cat #49752)) for 24 h. Afterwards, cells were treated with TGFβ1 (1 ng/ml) or vehicle, and additionally small molecules or appropriate vehicle controls were added. […] Fluorescenceconjugation of the collagen type 1 antibody was done by using the AlexaFluor-555 Protein Labeling Kit (Invitrogen, Cat #A20174) according to manufacturer's instructions. […]
Following fixation, the automated imaging was achieved by using aconfocal laser scanning microscope (LSM710, Zeiss) with automated focus detection for three-dimensional image acquisition (1024 px×1024 px×9 px which equals a dimension of 1417 μm×1417 μm×16 μm). For post-acquisition analysis images were imported into IMARIS software (Bitplane) and volume detection or alternatively quantification of the mean fluorescence intensity, as well as Hoechst-stained cell nuclei were automatically counted by using Imaris' spot detection algorithm. […]

[2] = system: cellular contractility of phLFs; test: 3D collagen gel contractility assay of primary human lung fibroblasts; assay type: cell-based; conditions: n=3 patient phLFs
Procedure: In a 96-well imaging plate 50 μl 3D collagen gels were casted per well as described before (30), and 20.000 phLFs per well were seeded on top. Cells were treated with 1 ng/mL TGFβ1 and/or example 84. After 72 h cells were fixed with 4% paraformaldehyde. Collagen gels were imaged using an Axiolmager2 (Zeiss) and the gel diameter was determined using Zen Blue v2.5 (Zeiss).

CCCCOc1ccccc1NC(=O)/C=C/c1ccc(OC)c(OC)c1 [Example 84, (E)-N-(2-butoxyphenyl)-3-(3,4-dimethoxyphenyl)acrylamide]
viability (calcein staining) (phLFs): proving viability
dynamic deposition of collagen I and fibulin 1 (MFI, live imaging) [1]: inhibition of ECM deposition
cellular contractility (collagen gel) [2]: significant inhibition of cellular contractility
